{
  "source": "patent US9695155B2",
  "about": "“Herbicidal substituted pyrimidinyloxy benzene compounds” (E. I. DU PONT DE NEMOURS AND COMPANY, priority 2013, dated 2017)",
  "key": {"spring barley [1]": {"tested_on": "spring barley", "assay": "Test D postemergence", "assay_type": "in vivo, Hordeum vulgare", "conditions": "Hordeum vulgare, post-emergence, Postemergence, scale 0 to 100 (0 no effect, 100 complete control), read-out: Plant response rating, Barley, Spring", "summary_of_the_method": "(§1)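 Plant response is a visual score from 0 (no effect) to 100 (complete control) relative to controls. Plants were kept in a controlled growth environment for 7 to 21 days after spraying. Preemergence treatments went onto silt loam soil; postemergence ones onto 1- to 4-leaf seedlings.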"}, "winter barley [2]": {"tested_on": "winter barley", "assay": "Test D postemergence", "assay_type": "in vivo, Hordeum vulgare", "conditions": "Hordeum vulgare, post-emergence, Postemergence, scale 0 to 100 (0 no effect, 100 complete control), read-out: Plant response rating, Barley, Winter", "summary_of_the_method": "as §1"}, "field bindweed": {"tested_on": "field bindweed", "assay": "Test E postemergence", "assay_type": "in vivo, Convolvulus arvensis", "conditions": "Convolvulus arvensis, post-emergence, read-out: Plant response rating, Field Bindweed", "summary_of_the_method": "(§2)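 Response was scored visually on a 0-100 scale (100 = complete control) versus controls after 14 to 21 days in the greenhouse. Test chemicals, formulated with surfactant in a non-phytotoxic solvent mixture, had been applied preemergence to seeds in silt loam soil or postemergence to 1- to 4-leaf plants in potting medium.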"}, "chickweed [3]": {"tested_on": "chickweed", "assay": "Test D postemergence", "assay_type": "in vivo, Stellaria media", "conditions": "Stellaria media, post-emergence, scale 0 to 100 (0 no effect, 100 complete control), read-out: Plant response rating, Chickweed", "summary_of_the_method": "as §1"}, "hairy beggarticks": {"tested_on": "hairy beggarticks", "assay": "Test E postemergence", "assay_type": "in vivo, Bidens pilosa", "conditions": "Bidens pilosa, post-emergence, read-out: Plant response rating, Beggarticks", "summary_of_the_method": "as §2"}, "wild buckwheat": {"tested_on": "wild buckwheat", "assay": "Test D preemergence", "assay_type": "in vivo, Polygonum convolvulus", "conditions": "Fallopia convolvulus, pre-emergence, scale 0-100, read-out: Plant response rating, Buckwheat, Wild", "summary_of_the_method": "as §1"}, "pigweed": {"tested_on": "pigweed", "assay": "Test D preemergence", "assay_type": "in vivo, Amaranthus retroflexus", "conditions": "Amaranthus retroflexus, pre-emergence", "summary_of_the_method": "as §1"}, "barnyardgrass": {"tested_on": "barnyardgrass", "assay": "Test E postemergence", "assay_type": "in vivo, Echinochloa crus-galli", "conditions": "Echinochloa crus-galli, post-emergence, read-out: Plant response rating, Barnyardgrass", "summary_of_the_method": "as §2"}, "field poppy": {"tested_on": "field poppy", "assay": "Test D preemergence", "assay_type": "in vivo, Papaver rhoeas", "conditions": "Papaver rhoeas, pre-emergence, scale 0-100, read-out: Plant response rating, Field Poppy", "summary_of_the_method": "as §1"}, "wild oat": {"tested_on": "wild oat", "assay": "Test D postemergence", "assay_type": "in vivo, Avena fatua", "conditions": "Avena fatua, post-emergence, scale 0 to 100 (0 no effect, 100 complete control), read-out: Plant response rating, Oat, Wild", "summary_of_the_method": "as §1"}, "spring barley [4]": {"tested_on": "spring barley", "assay": "Test D preemergence", "assay_type": "in vivo, Hordeum vulgare", "conditions": "Hordeum vulgare, pre-emergence, scale 0-100, read-out: Plant response rating, Barley, Spring", "summary_of_the_method": "as §1"}, "winter barley [5]": {"tested_on": "winter barley", "assay": "Test D preemergence", "assay_type": "in vivo, Hordeum vulgare", "conditions": "Hordeum vulgare, pre-emergence, scale 0-100, read-out: Plant response rating, Barley, Winter", "summary_of_the_method": "as §1"}, "chickweed [6]": {"tested_on": "chickweed", "assay": "Test D preemergence", "assay_type": "in vivo, Stellaria media", "conditions": "Stellaria media, pre-emergence, scale 0-100, read-out: Plant response rating, Chickweed", "summary_of_the_method": "as §1"}, "[7]": {"conditions": "Postemergence, 31 g ai/ha, scale 0 to 100"}, "[8]": {"conditions": "Postemergence, 62 g ai/ha, scale 0 to 100"}, "[9]": {"conditions": "Postemergence, 125 g ai/ha, scale 0 to 100"}, "[10]": {"conditions": "Postemergence, 250 g ai/ha, scale 0 to 100"}, "[11]": {"conditions": "postemergence, 16 g ai/ha, scale 0 to 100, 0 no effect, 100 complete control"}},
  "data": [
    {"smiles": "N#Cc1cccc(Oc2ncc(Br)cn2)c1-n1cc(C(F)(F)F)cn1", "note": "[Compound 59, 3-[(5-bromo-2-pyrimidinyl)oxy]-2-[4-(trifluoromethyl)-1H-pyrazol-1-yl]benzonitrile]", "values": [
      {"measurement": "plant injury at 31 g/ha", "setting": "spring barley [1]; 31 g ai/ha", "result": 10, "unit": "%"},
      {"measurement": "plant injury at 62 g/ha", "setting": "spring barley [1]; 62 g ai/ha", "result": 20, "unit": "%"},
      {"measurement": "plant injury at 125 g/ha", "setting": "spring barley [1]; 125 g ai/ha", "result": 20, "unit": "%"},
      {"measurement": "plant injury at 250 g/ha", "setting": "spring barley [1]; 250 g ai/ha", "result": 35, "unit": "%"},
      {"measurement": "plant injury at 31 g/ha", "setting": "winter barley [2]; 31 g ai/ha", "result": 10, "unit": "%"},
      {"measurement": "plant injury at 62 g/ha", "setting": "winter barley [2]; 62 g ai/ha", "result": 15, "unit": "%"},
      {"measurement": "plant injury at 125 g/ha", "setting": "winter barley [2]; 125 g ai/ha", "result": 15, "unit": "%"},
      {"measurement": "plant injury at 250 g/ha", "setting": "winter barley [2]; 250 g ai/ha", "result": 25, "unit": "%"},
      {"measurement": "pest or weed control at 31 g/ha", "setting": "field bindweed; [7]", "result": 60, "unit": "%"},
      {"measurement": "pest or weed control at 62 g/ha", "setting": "field bindweed; [8]", "result": 65, "unit": "%"},
      {"measurement": "pest or weed control at 125 g/ha", "setting": "field bindweed; [9]", "result": 70, "unit": "%"},
      {"measurement": "pest or weed control at 250 g/ha", "setting": "field bindweed; [10]", "result": 80, "unit": "%"},
      {"measurement": "pest or weed control at 16 g/ha", "setting": "field bindweed; [11]", "result": 50, "unit": "%"},
      {"measurement": "pest or weed control at 31 g/ha", "setting": "chickweed [3]; 31 g ai/ha", "result": 70, "unit": "%"},
      {"measurement": "pest or weed control at 62 g/ha", "setting": "chickweed [3]; 62 g ai/ha", "result": 75, "unit": "%"},
      {"measurement": "pest or weed control at 125 g/ha", "setting": "chickweed [3]; 125 g ai/ha", "result": 95, "unit": "%"},
      {"measurement": "pest or weed control at 250 g/ha", "setting": "chickweed [3]; 250 g ai/ha", "result": 95, "unit": "%"},
      {"measurement": "pest or weed control at 31 g/ha", "setting": "hairy beggarticks; [7]", "result": 60, "unit": "%"},
      {"measurement": "pest or weed control at 62 g/ha", "setting": "hairy beggarticks; [8]", "result": 60, "unit": "%"},
      {"measurement": "pest or weed control at 125 g/ha", "setting": "hairy beggarticks; [9]", "result": 70, "unit": "%"},
      {"measurement": "pest or weed control at 250 g/ha", "setting": "hairy beggarticks; [10]", "result": 95, "unit": "%"},
      {"measurement": "pest or weed control at 16 g/ha", "setting": "hairy beggarticks; [11]", "result": 50, "unit": "%"},
      {"measurement": "pest or weed control at 31 g/ha", "setting": "wild buckwheat; 31 g ai/ha", "result": 60, "unit": "%"},
      {"measurement": "pest or weed control at 62 g/ha", "setting": "wild buckwheat; 62 g ai/ha", "result": 100, "unit": "%"},
      {"measurement": "pest or weed control at 125 g/ha", "setting": "wild buckwheat; 125 g ai/ha", "result": 100, "unit": "%"},
      {"measurement": "pest or weed control at 250 g/ha", "setting": "wild buckwheat; 250 g ai/ha", "result": 100, "unit": "%"},
      {"measurement": "pest or weed control at 31 g/ha", "setting": "pigweed; 31 g ai/ha, scale 0 (no effect) to 100 (complete control), read-out: Plant response rating, Pigweed", "result": 100, "unit": "%"},
      {"measurement": "pest or weed control at 62 g/ha", "setting": "pigweed; 62 g ai/ha, scale 0-100, read-out: Plant response rating, Pigweed", "result": 100, "unit": "%"},
      {"measurement": "pest or weed control at 125 g/ha", "setting": "pigweed; 125 g ai/ha, scale 0-100, read-out: Plant response rating, Pigweed", "result": 100, "unit": "%"},
      {"measurement": "pest or weed control at 250 g/ha", "setting": "pigweed; 250 g ai/ha, scale 0-100, read-out: Plant response rating, Pigweed", "result": 100, "unit": "%"},
      {"measurement": "pest or weed control at 31 g/ha", "setting": "barnyardgrass; [7]", "result": 0, "unit": "%"},
      {"measurement": "pest or weed control at 62 g/ha", "setting": "barnyardgrass; [8]", "result": 10, "unit": "%"},
      {"measurement": "pest or weed control at 125 g/ha", "setting": "barnyardgrass; [9]", "result": 15, "unit": "%"},
      {"measurement": "pest or weed control at 250 g/ha", "setting": "barnyardgrass; [10]", "result": 30, "unit": "%"},
      {"measurement": "pest or weed control at 16 g/ha", "setting": "barnyardgrass; [11]", "result": 0, "unit": "%"},
      {"measurement": "pest or weed control at 31 g/ha", "setting": "field poppy; 31 g ai/ha", "result": 95, "unit": "%"},
      {"measurement": "pest or weed control at 62 g/ha", "setting": "field poppy; 62 g ai/ha", "result": 100, "unit": "%"},
      {"measurement": "pest or weed control at 125 g/ha", "setting": "field poppy; 125 g ai/ha", "result": 100, "unit": "%"},
      {"measurement": "pest or weed control at 250 g/ha", "setting": "field poppy; 250 g ai/ha", "result": 100, "unit": "%"},
      {"measurement": "pest or weed control at 31 g/ha", "setting": "wild oat; 31 g ai/ha", "result": 25, "unit": "%"},
      {"measurement": "pest or weed control at 62 g/ha", "setting": "wild oat; 62 g ai/ha", "result": 30, "unit": "%"},
      {"measurement": "pest or weed control at 125 g/ha", "setting": "wild oat; 125 g ai/ha", "result": 35, "unit": "%"},
      {"measurement": "pest or weed control at 250 g/ha", "setting": "wild oat; 250 g ai/ha", "result": 50, "unit": "%"},
      {"measurement": "plant injury at 31 g/ha", "setting": "spring barley [4]; 31 g ai/ha", "result": 5, "unit": "%"},
      {"measurement": "plant injury at 62 g/ha", "setting": "spring barley [4]; 62 g ai/ha", "result": 5, "unit": "%"},
      {"measurement": "plant injury at 125 g/ha", "setting": "spring barley [4]; 125 g ai/ha", "result": 50, "unit": "%"},
      {"measurement": "plant injury at 250 g/ha", "setting": "spring barley [4]; 250 g ai/ha", "result": 75, "unit": "%"},
      {"measurement": "plant injury at 31 g/ha", "setting": "winter barley [5]; 31 g ai/ha", "result": 0, "unit": "%"},
      {"measurement": "plant injury at 62 g/ha", "setting": "winter barley [5]; 62 g ai/ha", "result": 10, "unit": "%"},
      {"measurement": "plant injury at 125 g/ha", "setting": "winter barley [5]; 125 g ai/ha", "result": 40, "unit": "%"},
      {"measurement": "plant injury at 250 g/ha", "setting": "winter barley [5]; 250 g ai/ha", "result": 80, "unit": "%"},
      {"measurement": "pest or weed control at 31 g/ha", "setting": "chickweed [6]; 31 g ai/ha", "result": 100, "unit": "%"},
      {"measurement": "pest or weed control at 62 g/ha", "setting": "chickweed [6]; 62 g ai/ha", "result": 100, "unit": "%"},
      {"measurement": "pest or weed control at 125 g/ha", "setting": "chickweed [6]; 125 g ai/ha", "result": 100, "unit": "%"},
      {"measurement": "pest or weed control at 250 g/ha", "setting": "chickweed [6]; 250 g ai/ha", "result": 95, "unit": "%"}
    ]}
  ]
}
